# What was measured:
# H308 monoclonal antibody = assay: Inhibition of H308 monoclonal antibody by phosphorylated haptens (liposomal-ELISA); type: binding, mouse; conditions: 0.2 μmoles of hapten
# Procedure: Studies on inhibition of anti-lipidic particles antibodies were carried out using liposomes as antigens and the antigen-antibody reaction was analyzed by the liposomal-ELISA method, which includes the following steps:
# A) A first step of addition and incubation, in which an effective quantity of an antigen suspension is added to each one of the wells of the ELISA microtiter plate. This microtiter plate is selected among those with a high lipidic antigens binding property and said microtiter plate is incubated between 25 to 30° C. for 0.25 to 2 h.
# B) A second step of addition and incubation, in which an effective quantity of a blocking solution is added to each one of the wells of the ELISA microtiter plate with a high lipidic antigens binding property, and said microtiter plate being incubated at a temperature between 25 to 30° C. for 0.25 to 2 h.
# C) A step of elimination of blocking solution, preferably by suction, avoiding that microtiter plate becomes dry when blocking solution is eliminated, because liposomal antigens can be damaged.
# D) A step of inhibition of the antibody porter, in which the antibody porter is incubated with a chemical substance, or hapten, that will inhibit the active site that recognizes the antigen in the antibody porter.
# E) A third step of addition and incubation, in which an effective quantity of the antibody porter inhibited by the hapten was quickly added, to avoid that microtiter plate becomes dry, to each one of the wells using an antibody porter dilution from 1:5 to 1:1000 into blocking solution. This microtiter plate being incubated for 0.25 to 2 h at a temperature between 25 to 30° C.
# F) A first step of washing, in which the microtiter plate is washed with the blocking solution, preferably repeating 4-times and avoiding that microtiter plate becomes dry when eliminating the blocking solution.
# G) A fourth step of addition and incubation, in which an effective quantity of a second antibody is added to each one of the wells of microtiter plate. This plate is incubated in the darkness for 0.25 to 2 h at a temperature between 25 to 30° C. Second antibody is selected preferably among antibodies from a different specie to that of the antibody porter and they can be anti-Fc of human IgG, IgA and IgM or of the animal in study, or antibodies anti-Fc of IgM or of IgG depending on the nature of the monoclonal antibody when this is the antibody porter. Second antibody is used in a final dilution into blocking solution between […] and 1:3500 and it is conjugated to an enzyme preferably to peroxidase.
# H) A second step of washing, in which the microtiter plate is washed with the blocking solution, preferably repeating 4-times and avoiding that microtiter plate becomes dry when eliminating the blocking solution.
# I) A fifth step of addition and incubation, in which an effective quantity of the peroxidase sustrates is added to each one of the wells and this microtiter plate is incubated for 0.1 to 0.5 h at a temperature between .35 and 40° C., stopping the peroxidase reaction by adding an effective quantity of sulfuric acid.
# J) A step of analysis, in which microtiter plate is analyzed using a reading device for ELISA plates, preferably at 492 nm.
# In a specific embodiment, the hapten solution is obtained dissolving hapten in a buffer solution at pH between 7.0 and 7.4, in a relationship from 0.1 to 10 mmoles of hapten per liter of buffer solution.
# Costar microtiter plates, with 96 flat-bottom wells with a high lipidic antigens binding property (Costar Co. Cambrige, USA) were coated by the addition to each one of the wells of 100 μl of liposomes made from egg-yolk phosphatidylcholine:phosphatidate (2:1 molar ratio) in Tris-NaCl buffer (10 mM, 1 mM) pH 7, containing 0.1 μmol of phosphatidate, and treated with 5 mM CaCl2 to induce lipidic particles formation. Microtiter plates were incubated at room temperature for 1 h and they were blocked for 1 h at room temperature in a similar way as was described in Example 1. […]
# [1] = system: anti-lipidic particles antibodies from sera of patients with the antiphospholipid syndrome; assay: Hapten inhibition of anti-lipidic particles antibodies from patients' sera (liposomal-ELISA); type: binding, human; conditions: 0.2 μmoles hapten, 30 min at 30° C.
# Procedure: Costar microtiter plates, with 96 flat-bottom wells with a high lipidic antigens binding property (Costar Co. Cambrige, USA) were coated by the addition to each one of the wells of 100 μl of liposomes made from egg-yolk phosphatidylcholine:phosphatidate (2:1 molar ratio) in Tris-NaCl buffer (10 mM, 1 mM) pH 7, containing 0.1 μmol of phosphatidate, and treated with 5 mM CaCl2 to induce lipidic particles formation.
# Aliquots of 100 μl of patients' sera that were analyzed in Examples 1 and 2B were incubated with 100 μl of 0.2 μmoles of glycerolphosphorylcholine for 30 min at 30° C. Later on, blocked patients sera were added to the wells of the microtiter plate and the liposomal-ELISA method was applied as it was described in Example 1. Peroxidase-conjugated goat anti-Fc of human IgG, IgA and IgM antibodies were used as second antibody.
# BALB/c female mice = assay: Treatment of the pathology induced by H308 monoclonal antibody in mice; type: in vivo, mouse
# Procedure: H308 monoclonal antibody was administered by intraperitoneal injection of 1 μg each week during two months to BALB/c female mice, and simultaneously the glycerolphosphorylcholine hapten was administered at 2.5 mg/Kg, of body weight, doses by intravenous injection each 24 hs, for 2-months.
# Spermidine was administered, as chlorhydrate, in a dose of 1 mg/Kg, of body weight, by intraperitoneal injection each 24 hs, during two months.
structure (smiles),measurement,setting,value
C[N+](C)(C)CCOP(=O)([O-])OC[C@H](O)CO [glycerolphosphorylcholine],inhibition of H308 monoclonal antibody,H308 monoclonal antibody,100%
same,inhibition in the immunoreaction of patients sera with lipidic particles in liposomes,[1],100%
same,inhibition of the development of mice pathology by H308 monoclonal antibody,"BALB/c female mice; hapten 2.5 mg/Kg intravenous each 24 hs for 2-months, H308 1 μg i.p. each week",40%
same,therapeutically effective quantity,"BALB/c female mice; of body weight, BALB/c female mice given H308",2.5 mg/kg

# — patent US6777193B1, “Methods for diagnostic and/or treatment of antiphospholipids antibodies-related diseases, and devices” (Escuela Nacional de Ciencias Biologicas, del Instituto …, priority 2000, dated 2004)
